# Source: PubChem BioAssay AID1963444 (Molecular Pharmacology Branch, DTP, NCI, 2024)
# Tested on: HSSY-II complex spheroid growth, percent test/control
# Experiment: Anticancer human tumor HSSY-II cell line growth inhibition [Asc];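 also: spheroids exposed to drug for 7 days before reading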
# Conditions: for IC50: curve of first compound; for viability, T/C: stronger effect = lower value
# How it was run: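 Spheroid model: tumor line + HUVEC + hMSC. Single agents and combinations; top conc. at/near clinical Cmax (10 microM if undetermined), half-log dilutions. DMSO stocks at 800-fold test concentration.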
# [1] = second compound 0.1 µM, first compound 0.0316 µM
# [2] = second compound 0.1 µM, first compound 0.1 µM
# [3] = second compound 0.316 µM, first compound 0.0316 µM
# [4] = second compound 0.316 µM, first compound 0.1 µM
# [5] = second compound 1 µM, first compound 0.0316 µM
# [6] = second compound 1 µM, first compound 0.1 µM
structure (smiles),measurement,setting,value
Cn1ncnc1[C@H]1c2n[nH]c(=O)c3cc(F)cc(c23)N[C@@H]1c1ccc(F)cc1 + CNC(C)C(=O)NC1CN(S(=O)(=O)c2cccc(S(=O)(=O)N3CCC4CCC(C(=O)NC(c5ccccc5)c5ccccc5)N4C(=O)C(NC(=O)C(C)NC)C3)c2)CCC2CCC(C(=O)NC(c3ccccc3)c3ccccc3)N2C1=O,IC50,second compound 0.01 µM,> 100 nM
same,IC50,second compound 0.0316 µM,22.5 nM
same,IC50,second compound 0.1 µM,24.3 nM
same,IC50,second compound 0.316 µM,15.3 nM
same,IC50,second compound 1 µM,82.5 nM
same,"viability, T/C","second compound 0.01 µM, first compound 0.000316 µM",86.3%
same,"viability, T/C","second compound 0.01 µM, first compound 0.001 µM",86%
same,"viability, T/C","second compound 0.01 µM, first compound 0.00316 µM",87.1%
same,"viability, T/C","second compound 0.01 µM, first compound 0.01 µM",59.3%
same,"viability, T/C","second compound 0.01 µM, first compound 0.0316 µM",43.4%
same,"viability, T/C","second compound 0.01 µM, first compound 0.1 µM",59.6%
same,"viability, T/C","second compound 0.0316 µM, first compound 0.000316 µM",91.1%
same,"viability, T/C","second compound 0.0316 µM, first compound 0.001 µM",93.2%
same,"viability, T/C","second compound 0.0316 µM, first compound 0.00316 µM",80.8%
same,"viability, T/C","second compound 0.0316 µM, first compound 0.01 µM",60.7%
same,"viability, T/C","second compound 0.0316 µM, first compound 0.0316 µM",36.8%
same,"viability, T/C","second compound 0.0316 µM, first compound 0.1 µM",53.4%
same,"viability, T/C","second compound 0.1 µM, first compound 0.000316 µM",82.9%
same,"viability, T/C","second compound 0.1 µM, first compound 0.001 µM",67.6%
same,"viability, T/C","second compound 0.1 µM, first compound 0.00316 µM",76.1%
same,"viability, T/C","second compound 0.1 µM, first compound 0.01 µM",58.3%
same,"viability, T/C",[1],39.6%
same,"viability, T/C",[2],55.4%
same,"viability, T/C","second compound 0.316 µM, first compound 0.000316 µM",93.8%
same,"viability, T/C","second compound 0.316 µM, first compound 0.001 µM",92.5%
same,"viability, T/C","second compound 0.316 µM, first compound 0.00316 µM",80.1%
same,"viability, T/C","second compound 0.316 µM, first compound 0.01 µM",53%
same,"viability, T/C",[3],37.7%
same,"viability, T/C",[4],54.4%
same,"viability, T/C","second compound 1 µM, first compound 0.000316 µM",89.6%
same,"viability, T/C","second compound 1 µM, first compound 0.001 µM",84.5%
same,"viability, T/C","second compound 1 µM, first compound 0.00316 µM",82%
same,"viability, T/C","second compound 1 µM, first compound 0.01 µM",72.2%
same,"viability, T/C",[5],56.4%
same,"viability, T/C",[6],48.9%
C=C(F)C(=O)N1CCN(c2nc(OCC3CCCN3C)nc3c2CCN(c2cccc4cccc(Cl)c24)C3)CC1CC#N (stereo not given) + Cc1c(S(C)(=O)=O)c(-c2cc(F)cc(N3CCN(c4ccc(NS(=O)(=O)c5ccc(NC(CCN6CCC(C(=O)OCCCP(=O)(O)O)CC6)CSc6ccccc6)c(S(=O)(=O)C(F)(F)F)c5)cc4)CC3)c2)c(-c2ccc(Cl)cc2)n1C(C)C,IC50,second compound 0.1 µM,1440 nM
same,IC50,second compound 0.316 µM,1360 nM
same,IC50,second compound 1 µM,1150 nM
same,IC50,second compound 3.16 µM,1030 nM
same,IC50,second compound 10 µM,997 nM
same,"viability, T/C",[1],106%
same,"viability, T/C",[2],106%
same,"viability, T/C","second compound 0.1 µM, first compound 0.316 µM",86.7%
same,"viability, T/C","second compound 0.1 µM, first compound 1 µM",72.7%
same,"viability, T/C","second compound 0.1 µM, first compound 3.16 µM",0.9%
same,"viability, T/C","second compound 0.1 µM, first compound 10 µM",0.13%
same,"viability, T/C",[3],105%
same,"viability, T/C",[4],92%
same,"viability, T/C","second compound 0.316 µM, first compound 0.316 µM",84%
same,"viability, T/C","second compound 0.316 µM, first compound 1 µM",68%
same,"viability, T/C","second compound 0.316 µM, first compound 3.16 µM",0.59%
same,"viability, T/C","second compound 0.316 µM, first compound 10 µM",0.11%
same,"viability, T/C",[5],98.4%
same,"viability, T/C",[6],97.3%
same,"viability, T/C","second compound 1 µM, first compound 0.316 µM",95.6%
same,"viability, T/C","second compound 1 µM, first compound 1 µM",57%
same,"viability, T/C","second compound 1 µM, first compound 3.16 µM",0.36%
same,"viability, T/C","second compound 1 µM, first compound 10 µM",0.12%
same,"viability, T/C","second compound 3.16 µM, first compound 0.0316 µM",104%
same,"viability, T/C","second compound 3.16 µM, first compound 0.1 µM",98%
same,"viability, T/C","second compound 3.16 µM, first compound 0.316 µM",97%
same,"viability, T/C","second compound 3.16 µM, first compound 1 µM",51.6%
same,"viability, T/C","second compound 3.16 µM, first compound 3.16 µM",0.27%
same,"viability, T/C","second compound 3.16 µM, first compound 10 µM",0.13%
same,"viability, T/C","second compound 10 µM, first compound 0.0316 µM",106%
same,"viability, T/C","second compound 10 µM, first compound 0.1 µM",113%
same,"viability, T/C","second compound 10 µM, first compound 0.316 µM",85.3%
same,"viability, T/C","second compound 10 µM, first compound 1 µM",55.7%
same,"viability, T/C","second compound 10 µM, first compound 3.16 µM",0.4%
same,"viability, T/C","second compound 10 µM, first compound 10 µM",0.22%
